Patent US20120143074A1, “METHOD OF EVALUATING SUITABILITY FOR DRUG THERAPY FOR THE PREVENTION AND TREATMENT OF ANXIETY DISORDERS USING CHOLINERGIC TYPE II THETA RHYTHM” (priority 2009, published 2012)

Assays:
PLC-β4^−/− mice [1] = assay: Three anxiety behavioral assays after rivastigmine (overall); format: in vivo; conditions: 0.5 mg/kg i.p., 60 min after injection
Description: (§1) rivastigmine (Novartis Pharma, Basel, Switzerland), which is a cholinergic enhancer, was dissolved in saline. Animals were injected intraperitoneally (i.p.) with 0.5 mg/kg rivastigmine 60 min before the start of anxiety behavioral test (total volume, 5 ml/kg). […] Both PLC-β4^+/+(WT) and PLC-β4^−/−(KO) mice were randomly assigned to one of the following treatment groups: (1) WT-sham (wild-type mice with intraperitoneal injection of saline; n=10), (2) KO-sham (PLC-β4^−/− mice with intraperitoneal injection of saline; n=10), and (3) KO-rivastigmine (PLC-β4^−/− mice with intraperitoneal injection of rivastigmine; n=10). rivastigmine is a second-generation carbamate-based reversible non-competitive AChE and butyrylChE (BuChE) inhibitor. The reason for choosing the inhibitor is that an inhibitory effect sustains for a long period of time, the inhibitor is specific to the brain (Enz, A. et al., Prog. Brain Res. 98, 431-438, 1993), and the inhibitor selectively increases cholin activity in hippocampus and cortex (Weinstock, M., et al., J. Neural Transm. Suppl. 43, 219-225, 1994).
(§2) Whether rivastigmine administration could also rescue the increased anxiety phenotype of PLC-β4^−/− mice was investigated. To this end, rivastigmine (0.5 mg/kg, i.p.) was injected into PLC-β4^−/− mice and, 60 min after injection, the rivastigmine treated group was subjected to three anxiety behavioral assays.

PLC-β4^−/− mice [2] = assay: Open-field thigmotaxis test after rivastigmine; format: in vivo; conditions: 0.5 mg/kg i.p., 60 min before test
Description: Open field thigmotaxis was assessed by placing mice in the center of an open field apparatus (40×40×40 cm) under dim lighting. During a 10 min observation period, locomotor activity, number of central crosses, and time spent in the central sector of the open field were recorded and analyzed by PC-based video behavior assay system (TSE, Bad Homburg, Germany). Thigmotaxis index was defined as a ratio of the number of entries into the central part of a testing arena to the locomotor activity. The thigmotaxis index was calculated for each mouse separately and used to calculate means and SEMs for a given experimental group (Treit, D. & Fundytus, M., Pharmacol. Biochem. Behav. 31, 959-962, 1988; Sienkiewicz-Jarosz, H. et al., J Neural Transm. 107, 1403-1412, 2000).
as §1, §2

PLC-β4^−/− mice [3] = assay: Hippocampal EEG theta rhythm in a novel environment after rivastigmine; format: in vivo; conditions: 0.5 mg/kg i.p.
Description: For electrode implantation, the animals were anesthetized with pentobarbital ([…], i.p.) and held in a stereotaxic apparatus with bregma and lambda in the same horizontal plane. Hippocampal EEG recordings were performed using Teflon-coated tungsten electrodes (150 um) implanted in the hippocampal fissure with grounding over the cerebellum (from bregma, 2.0 mm anteroposterior, 1.2 mm mediolateral, and 1.8 mm dorsoventral). The position of the electrodes was verified by light microscopy in Nissl-stained sections according to published protocols. Field potential was amplified (×1,000), bandpass-filtered (bandpass-filtered) (0.1-100 Hz), digitized with 12-bit resolution continuously at 1 kHz sampling, and recorded on a personal computer.
The EEG EEG data were collected in 4 s segments and fast-Fourier transformed (FFT). The data were continuously monitored for movement artifacts, and the recording of each segment was manually verified by the experimenter, blinded to the genotype of the animals. […] To compare the EEG spectral characteristics of hippocampal electrical activities, EEG spectral power in 1 Hz bins was calculated using FFT (Hamming window) of each 4 s epoch. […]
Cholinergic and noncholinergic theta rhythms associated with different behaviors were recorded. […] Non-cholinergic type I theta rhythms were recorded from mice walking in an open chamber or running on a wheel. […]

PLC-β4^−/− mice [4] = assay: Light/dark transition test after rivastigmine; format: in vivo; conditions: 0.5 mg/kg i.p., 60 min before test
From the text: The apparatus used for the light/dark transition test consisted of a cage (25×40×20 cm) divided into two compartments by a black partition containing a small opening that allows the mouse to move from one compartment to the other. One compartment, comprising two-thirds of the surface area, was made of white plastic and was brightly illuminated; the adjoining smaller compartment was black and dark. Mice were placed in the dark compartment and allowed to move freely between the two chambers for 5 min. The number of transitions between the two compartments, time spent in each chamber, and latency to the first transition were recorded (Welch, J. M. et al., Nature 448, 894-900, 2007).
(§3) rivastigmine (Novartis Pharma, Basel, Switzerland), which is a cholinergic enhancer, was dissolved in saline. Animals were injected intraperitoneally (i.p.) with 0.5 mg/kg rivastigmine 60 min before the start of anxiety behavioral test (total volume, 5 ml/kg). […]

[5] = tested on: hippocampus acetylcholine concentration; conditions: 0.5 mg/kg of rivastigmine; microdialysis; cited from earlier work
PLC-β4^−/− mice [6] = assay: Elevated plus-maze after rivastigmine; format: in vivo; conditions: 0.5 mg/kg i.p., 60 min before test
Description: The elevated plus-maze consists of two open and two enclosed arms of the same size (45^┘ 5 cm) with walls 15 cm high. The arms, constructed of black acrylic, radiate from a central platform (5^┘ 5 cm) to form a plus sign. The entire apparatus was elevated to a height of 30 cm above floor level. Each mouse was placed in the central platform facing one of the open arms. The number of entries into the open and closed arms and the time spent on the open and closed arms were recorded during a 5 min test period (Parks, C. L. et al., Proc. Natl. Acad. Sci. USA 95, 10734-10739; 1998; Ramboz, S. et al., Proc. Natl. Acad. Sci. USA 95, 14476-14481, 1998; Gross, C. et al., Nature 416, 396-400, 2002).
as §3

CCN(C)C(=O)Oc1cccc([C@H](C)N(C)C)c1 [rivastigmine]
increased anxiety phenotype in each of the three anxiety tests (PLC-β4^−/− mice [1]): showed a reversal of the increased anxiety phenotype
locomotion in the center of the open field (PLC-β4^−/− mice [2]): wild-type levels of locomotion in the center of the open field
thigmotaxis index (PLC-β4^−/− mice [2]): reduced thigmotaxis index to the same levels as those in wild-type mice injected with saline
time spent in the central sector of the open field (PLC-β4^−/− mice [2]): levels comparable with those in wild-type mice injected with saline
total locomotion activities in the open field (PLC-β4^−/− mice [2]): wild-type levels of total locomotion activities
amplitude of the cholinergic theta rhythms (PLC-β4^−/− mice [3]; alert immobility, novel environment): restored to a level similar to that of the wild-type mice injected with saline
amplitude of non-cholinergic type I theta rhythms (PLC-β4^−/− mice [3]; recorded during locomotion (walking) in new open field, vs saline-injected KO and WT mice): not significantly different among the three groups
time in the light chamber (PLC-β4^−/− mice [4]): indistinguishable from that of wild-type mice injected with saline
transitions between light and dark boxes (PLC-β4^−/− mice [4]): indistinguishable from that of wild-type mice injected with saline
increase of hippocampus acetylcholine concentration [5]: about 100%
entries into the open arms (PLC-β4^−/− mice [6]): indistinguishable from wild-type mice injected with saline
total entries into the closed and open arms (PLC-β4^−/− mice [6]; three groups): did not differ among the three groups
